{
  "source": "paper PMC5623054",
  "about": "“Cloning and Functional Characterization of Octβ2-Receptor and Tyr1-Receptor in the Chagas Disease Vector, Rhodnius prolixus” (Frontiers in Physiology, 2017)",
  "assay_type_in_all_cases": "cell-based",
  "key": {"[1]": {"target": "T1, RhoprTyr1-R (Rhodnius prolixus, UniProt A0A291L8I9)", "T1 construct": "full ORF (455 amino acids; GenBank MF377527) transiently expressed in HEK293/CNG cells", "T1 sequence (A0A291L8I9 1-455)": "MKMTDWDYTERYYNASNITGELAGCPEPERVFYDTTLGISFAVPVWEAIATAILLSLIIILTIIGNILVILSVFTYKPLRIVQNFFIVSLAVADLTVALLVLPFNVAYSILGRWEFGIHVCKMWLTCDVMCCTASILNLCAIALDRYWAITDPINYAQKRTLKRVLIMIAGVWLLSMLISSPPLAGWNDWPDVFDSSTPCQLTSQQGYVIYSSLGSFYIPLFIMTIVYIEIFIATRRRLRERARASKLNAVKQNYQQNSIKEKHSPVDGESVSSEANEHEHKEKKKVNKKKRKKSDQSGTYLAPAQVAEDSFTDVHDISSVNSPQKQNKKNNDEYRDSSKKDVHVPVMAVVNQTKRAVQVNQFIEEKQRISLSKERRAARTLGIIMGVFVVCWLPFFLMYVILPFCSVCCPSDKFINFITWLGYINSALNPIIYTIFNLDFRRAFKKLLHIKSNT", "assay": "aequorin bioluminescence Ca2+ assay in transfected HEK293/CNG cells, dose-response (agonist)"}, "[2]": {"target": "T2, RhoprOctβ2-R (Rhodnius prolixus, UniProt A0A291L8J3)", "T2 construct": "full ORF (447 amino acids; GenBank MF377526) transiently expressed in HEK293/CNG cells", "T2 sequence (A0A291L8J3 1-447)": "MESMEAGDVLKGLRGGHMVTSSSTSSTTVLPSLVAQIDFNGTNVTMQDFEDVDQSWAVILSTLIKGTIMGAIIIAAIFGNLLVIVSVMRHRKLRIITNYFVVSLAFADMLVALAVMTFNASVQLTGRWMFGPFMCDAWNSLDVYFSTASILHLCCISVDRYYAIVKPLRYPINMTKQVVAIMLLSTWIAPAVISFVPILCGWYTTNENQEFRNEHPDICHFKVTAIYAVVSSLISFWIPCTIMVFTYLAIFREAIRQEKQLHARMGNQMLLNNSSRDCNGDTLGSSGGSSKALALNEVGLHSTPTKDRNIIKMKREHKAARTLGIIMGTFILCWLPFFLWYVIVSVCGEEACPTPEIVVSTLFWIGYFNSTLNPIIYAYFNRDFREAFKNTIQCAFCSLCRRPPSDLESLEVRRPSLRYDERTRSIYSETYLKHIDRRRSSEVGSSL", "assay": "aequorin bioluminescence Ca2+ assay in transfected HEK293/CNG cells, dose-response (full agonist)"}, "[3]": {"target": "T2, RhoprOctβ2-R", "assay": "aequorin bioluminescence Ca2+ assay in transfected HEK293/CNG cells, dose-response (partial agonist)"}, "[4]": {"target": "T2, RhoprOctβ2-R", "assay": "antagonism of octopamine-induced aequorin luminescence in HEK293/CNG cells, single dose […]"}, "[5]": {"target": "T2, RhoprOctβ2-R", "assay": "partial antagonism of octopamine-induced aequorin luminescence in HEK293/CNG cells, single dose […]"}, "[6]": {"target": "T1, RhoprTyr1-R", "assay": "antagonism of tyramine-induced aequorin luminescence in HEK293/CNG cells, single dose […]"}},
  "data": [
    {"smiles": "NCC(O)c1ccc(O)cc1", "note": "(stereo not shown) [OA, octopamine]", "values": [
      {"measurement": "EC50", "setting": "[1]", "value": 6.88, "unit": "µM"},
      {"measurement": "EC50", "setting": "[2]", "value": 0.367, "unit": "µM"}
    ]},
    {"smiles": "NCCc1ccc(O)cc1", "note": "[TA, tyramine]", "values": [
      {"measurement": "EC50", "setting": "[1]", "value": 0.0517, "unit": "µM"},
      {"measurement": "EC50", "setting": "[3]", "value": 3.85, "unit": "µM"}
    ]},
    {"smiles": "CN(C)Cc1c[nH]c2ccccc12", "note": "[gramine]", "values": [
      {"measurement": "antagonism of octopamine-induced aequorin luminescence in HEK293/CNG cells, sing", "setting": "[4]", "value": "Phentolamine and gramine significantly reduced octopamine-induced receptor activation"}
    ]},
    {"smiles": "CCN(CC)CCNC(=O)c1cc(Cl)c(N)cc1OC", "note": "[metoclopramide]", "values": [
      {"measurement": "partial antagonism of octopamine-induced aequorin luminescence in HEK293/CNG cel", "setting": "[5]", "value": "RhoprOctβ2-R was antagonized by phentolamine > gramine > metoclopramide"}
    ]},
    {"smiles": "CC(COc1ccccc1)N(CCCl)Cc1ccccc1", "note": "(stereo not shown) [phenoxybenzamine]", "values": [
      {"measurement": "antagonism of tyramine-induced aequorin luminescence in HEK293/CNG cells, single", "setting": "[6]", "value": "notably yohimbine and phenoxybenzamine, reduced the tyramine-induced activation of the RhoprTyr1-R"}
    ]}
  ]
}
